# Measurements as given in patent US20150104870A1, “NEURONAL DIFFERENTIATION PROMOTER” (KEIO UNIVERSITY, priority 2012, published 2015).
# Entries after “also recorded” stand apart in the source; their conditions may differ.
# Key:
# [1] = tested on: miR-17 binding site in 3′UTR of p38 mRNA; assay: DsRed-Express2 reporter assay (Mp38 sensor) in HEK293 cells; format: cell-based, human; settings: HEK293 stable transformant, FACS one week after lentivirus, compared to miR-LacZ
# Text: FIG. 17 is a graph showing that miR-17 binds to a binding site in the 3′ untranslated region (UTR) of mouse p38 mRNA. […] The miR-17 binding site in 3′UTR of p38 mRNA (to be referred to as “Mp38 sensor”; 2970-2992 of NM_011951) was cloned into a mammal expression vector of the DsRed-Express2 reporter system. After transformation of HEK293 cells, lentiviruses expressing miR-LacZ or miR-17 were introduced into a stable transformant. One week later, the intracellular expression level of DsRed-Express2 was analyzed by FACS. […] (t-test, n (≧3000 cells)=3, **P<0.01). Bars and error bars represent the mean+s.e.m for each condition.
# p2 neurospheres = assay: Mouse ESC-derived neurosphere differentiation assay; format: cell-based; settings: for neuronal differentiation (βIII-tubulin-positive neurons) of p2 neurospheres: lentiviral overexpression in NSCs from p0 stage, differentiated at p2, control miR-LacZ
# Procedure: (§1) Mouse ESC (EB3) culture, EB formation, neurosphere formation and differentiation of neurosphere were performed as previously described (Nat. Neurosci. 11, 1014-1023 (2008)). Human NSCs were grown as previously described (J. Neurosci. Res. 69, 869-879 (2002); J. Neurosci. Res. 87, 307-317 (2009)) without […] growth factor (EGF), and allowed to differentiate on a substrate-coated coverslips in the absence of mitogen for 14 days, a procedure similar to that used for mouse neurosphere.
# (§2) Immunocytechemistry and immunohistochemistry were performed as previously described (Nat. Neurosci. 11, 1014-1023 (2008)) using antibodies against βIII-tubulin, NeuN (neural marker), glial fibrillary acidic protein (GFAP, astrocyte marker), and haemagglutinin (HA).
# p38 = assay: Western blotting of p38 expression in neurospheres; format: cell-based, mouse; settings: p2 neurospheres
# developing mouse brain = assay: In utero lentiviral microinjection, fate of infected cells in cerebral cortex; format: in vivo; settings: lentivirus injected in utero at E10.5, examined at P30
# Procedure: Experiments were performed using ICR mice. All aspects of animal care and treatment were carried according to the guidelines of the Experimental Animal Committee of Keio University School of Medicine. In utero microinjection of lentivirus particles into the brain of E10.5 ICR mouse was guided by an in vivo ultrasound real-time scanner (Vevo660; VisualSonics).
# as §2
# Gfap promoter = assay: Bisulfite sequencing of CpG methylation status; format: cell-based, mouse
# Text: The methylation frequency of 10 CpG sequences on the Gfap promoter, including the CpG site in the STAT3-binding sequence as indicated by the arrows, was examined. The graphs show the percentages of methylated CpG cytosines in the whole Gfap promoter (left graph) and the STAT3-binding region (right graph) (t test, n (≧10 clones)=3, NS (not significant), P>0.05). Bars and error bars represent the mean+s.e.m for each condition.
# [2] = tested on: human fetal brain-derived neurospheres; assay: Human neurosphere differentiation assay; format: cell-based; settings: human neurospheres treated with inhibitor, vs control
# Procedure: as §1, §2
compound,measurement,setting,value
"miR-17: miRNA targeting p38, SEQ ID NO: 5, overexpressed by lentivirus (guide CAAAGUGCUUACAGUGCAGGUAG; listed as Mus musculus)",DsRed-Express2 reporter expression linked to Mp38 sensor / interaction with p38 mRNA,[1],direct interaction; also recorded: caused a decrease in DsRed-Express2
same,differentiation of p2 neurospheres in presence of gliogenic cytokines,"p2 neurospheres; LIF (10 ng/ml) and BMP2 (100 ng/ml) during differentiation, p2 stage",differentiated exclusively into neurons; also recorded: did not undergo gliogenesis
same,neuropotency of p3 neurospheres,"p2 neurospheres; lentiviral infection at onset of p3 stage, within 1 week",marked recovery of neuropotency; also recorded: restored neuropotency of mouse p3 neurospheres
same,neuronal differentiation (βIII-tubulin-positive neurons) of p2 neurospheres,p2 neurospheres,replicated the phenotype induced by the intact miR-17-92 cluster
same,p38 protein expression,p38,suppressed p38 expression at p2 stage
same,infected cells fated to become neurons in the cerebral cortex,developing mouse brain,97.6%
same,CpG methylation of Gfap promoter,"Gfap promoter; p2 neurosphere stage, overexpression from p0",no significant changes in the extent of CpG methylation
same,DNA methylation status of the Gfap promoter,Gfap promoter; p3 neurospheres,did not change significantly
"miR-106b: miRNA targeting p38, SEQ ID NO: 7, paralog of miR-17 (UAAAGUGCUGACAGUGCAGAU; listed as RNA, chemistry not fully specified; listed as Mus musculus)",neuronal differentiation (βIII-tubulin-positive neurons) of p2 neurospheres,p2 neurospheres,led to a neuronal phenotype; also recorded: stronger than that of miR-106a
"miR-106a: miRNA targeting p38, SEQ ID NO: 6, paralog of miR-17 (CAAAGUGCUAACAGUGCAGGUAG; listed as RNA, chemistry not fully specified; listed as Mus musculus)",neuronal differentiation (βIII-tubulin-positive neurons) of p2 neurospheres,p2 neurospheres,led to a neuronal phenotype
"C[S+]([O-])c1ccc(-c2nc(-c3ccncc3)c(-c3ccc(F)cc3)[nH]2)cc1 (stereo not drawn) [SB203580, reference compound]",percentage of neurons differentiated from p2 neurospheres (neuropotency),"p2 neurospheres; mouse p2 neurospheres, treatment with inhibitor during growth, vs control",showed higher neuropotency than controls; also recorded: increased the percentage of neurons differentiated from p2 neurospheres
same,percentage of neurons differentiated from human neurospheres (neuropotency),[2],restored neuropotency; also recorded: increased the percentage of neurons differentiated from the neurospheres
